This is an account of results in patent publication US20100041712A1, “SUBSTITUTED IMIDAZOLE COMBINATIONS” (PFIZER INC., priority 2008, published 2010).

For this assay, the system named is Ctenocephalides felis. Nature of the assay: In-vivo study: topical spot-on formulations on beagle dogs infested with fleas on Day 30. The note with it: compound alone, 30 mg/kg topical, Day 30 infestation (Table 1). On the procedure:
In-vivo studies were conducted in compliance with International Cooperation on Harmonisation of Technical Requirements for Registration of Veterinary Products (VICH) and Good Clinical Practice (GCP) principles and practices.
In one in-vivo study, topical spot-on formulations were prepared using dipropylene glycol monomethyl ether (DPGMME) and ethanol (80:20% v/v) and butylated hydroxyl anisol (BHA) 0.1% w/v. Control was vehicle. Treatment T02 was 30 mg/kg (150 mg/mL) compound (1A1); T03 was 20 mg/kg (100 mg/mL) compound (1A1), 6.7 mg/kg (33.5 mg/mL) fipronil, and 6 mg/kg (30 mg/mL) s-methoprene; T04 was 30 mg/kg (150 mg/mL) compound (1A1), 6.7 mg/kg (50.4 mg/mL) fipronil, and 6 mg/kg (45 mg/mL) s-methoprene; and T05 was 30 mg/kg (150 mg/mL) compound (1A1), 6.7 mg/kg (33.5 mg/mL) fipronil and 6 mg/kg (30 mg/mL) s-methoprene. A total of 40 beagle dogs (8 dogs/treatment group) were used. Dogs were individually housed. Treatments were administered on Day 0. On Day 30, dogs were infested with 100 Ctenocephalides felis unfed adult fleas. Dead and non-moving fleas were counted at 24 and 48 hours after infestation (Table 1).

Regarding `Cc1cccc([C@H](C)c2ncc[nH]2)c1C` [compound (1A1), 2-[(1S)-1-(2,3-dimethylphenyl)ethyl]-1H-imidazole], the intrinsic flea activity result is on record as “lacks intrinsic flea activity”.
